The term IC50 denotes the concentration needed to halve the response being measured. High values mean weaker potency in that assay, low ones greater potency in that assay.

Experimental findings from patent US12486302B2, “Somatostatin receptor antagonist compounds and methods of using the same” (CDRD VENTURES INC., priority 2016, dated 2025) are described below.

What all share (format): cell-based
Common to all, as to conditions: agonist challenge at EC80

One assay concerns the target SSTR1 (Homo sapiens, UniProt P30872). As to the kind of experiment: PathHunter β-Arrestin assay, antagonist mode, SSTR1. Here is the method:
(§1) The PathHunter® β-Arrestin assay monitors the activation of a GPCR in a homogenous, non-imaging assay format using a technology developed by DiscoveRx called Enzyme Fragment Complementation (EFC) with β-galactosidase (β-Gal) as the functional reporter. […] EA is fused to β-Arrestin and […] is fused to the GPCR of interest. When the GPCR is activated and β-Arrestin is recruited to the receptor, ED and EA complementation occurs, restoring β-Gal activity which is measured using chemiluminescent PathHunter® Detection Reagents. For antagonist determination, cells were pre-incubated with the compounds followed by agonist challenge at the EC80 concentration. Data was normalized to the maximal and minimal response observed in the presence of EC80 ligand and vehicle. Compound activity was analyzed using CBIS data analysis suite ChemInnovation, CA). Percentage inhibition was calculated using the following formula: % Inhibition=100%×(1−(mean signal of test sample-mean signal of vehicle control)/(mean signal of EC80 control-mean signal of vehicle control)). Percentage inhibition was calculated at 10 concentrations in steps on a Log 3 scale ranging from […] to 5e-5 μM. The results were plotted for IC50 calculation.

The target in a further assay is SSTR4 (Homo sapiens, UniProt P31391). As to the kind of experiment: PathHunter β-Arrestin assay, antagonist mode, SSTR4. Here is the method:
as §1

The target of assay [1] is somatostatin type 2 (SSTR2) receptors (Homo sapiens, UniProt P30874). The assay is described as follows: PathHunter β-Arrestin assay, antagonist mode, SSTR2. In short, it runs like this: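 Cells co-expressing PK-tagged human receptor and EA-β-Arrestin were pre-incubated with compound, then challenged with agonist at EC80. β-Gal complementation read by chemiluminescence; % inhibition normalized to EC80 and vehicle controls at 10 concentrations (log 3 steps from 1 μM down to 5e-5 μM), fitted for IC50.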
somatostatin type 2 (SSTR2) receptors, sequence (P30874 whole entry): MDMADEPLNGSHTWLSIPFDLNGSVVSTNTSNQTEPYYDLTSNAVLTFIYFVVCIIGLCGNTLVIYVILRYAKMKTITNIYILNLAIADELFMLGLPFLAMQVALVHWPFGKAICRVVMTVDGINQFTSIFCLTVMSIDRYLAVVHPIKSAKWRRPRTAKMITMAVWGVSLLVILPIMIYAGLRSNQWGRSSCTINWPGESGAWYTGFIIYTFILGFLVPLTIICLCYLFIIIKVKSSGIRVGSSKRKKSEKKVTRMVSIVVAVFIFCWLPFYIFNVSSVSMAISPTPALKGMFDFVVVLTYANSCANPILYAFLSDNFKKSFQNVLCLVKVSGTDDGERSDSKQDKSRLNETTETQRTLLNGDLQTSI

The target in a further assay is SSTR5 (Homo sapiens, UniProt P35346). As to the kind of experiment: PathHunter β-Arrestin assay, antagonist mode, SSTR5. Here is the method:
as §1

The target in the next assay is SSTR3 (Homo sapiens, UniProt P32745). As to the kind of experiment: PathHunter β-Arrestin assay, antagonist mode, SSTR3. Here is the method:
as §1

*1 amine or outer side, *2 acyl side, *3 side chain or, on linkers, in order; H or OH if unused. Where a SMILES comes first, the peptide text is derived from it. Bridges are numbered along the chain shown (N, C = ends). Side-chain parts run from the residue outwards. [ ]: non-standard residue; d: D form. The star is where a group is joined. X1 = O=C([C@@H](Cc1ccc(NS(=O)(=O)c2ccccc2)cc1)N[*:1])[*:2]; dPhe(4-CH2NHCONH2) = NC(=O)NCc1ccc(C[C@@H](N)C(=O)O)cc1; X2 = CCCCCNc1ccc(C[C@@H](N[*:1])C(=O)[*:2])cc1; dPhe(4-NH2) = Nc1ccc(C[C@@H](N)C(=O)O)cc1; Phe(4-Cl) = N[C@@H](Cc1ccc(Cl)cc1)C(=O)O; CO = O=C([*:1])[*:2]; NHPh = c1ccc(N*)cc1 Some results are limits rather than exact numbers.

SSTR1, sequence (P30872 whole entry, the tested form may be a part): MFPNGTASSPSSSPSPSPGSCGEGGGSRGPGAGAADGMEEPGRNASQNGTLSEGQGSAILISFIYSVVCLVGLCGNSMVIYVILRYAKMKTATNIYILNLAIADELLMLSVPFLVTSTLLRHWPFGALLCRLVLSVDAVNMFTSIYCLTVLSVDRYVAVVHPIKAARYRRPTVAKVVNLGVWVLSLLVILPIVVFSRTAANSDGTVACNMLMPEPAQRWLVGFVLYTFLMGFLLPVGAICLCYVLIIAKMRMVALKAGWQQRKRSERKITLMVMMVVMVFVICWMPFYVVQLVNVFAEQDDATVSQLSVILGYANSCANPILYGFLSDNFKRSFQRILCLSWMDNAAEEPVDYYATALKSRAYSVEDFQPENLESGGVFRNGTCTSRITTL
SSTR4, sequence (P31391 whole entry): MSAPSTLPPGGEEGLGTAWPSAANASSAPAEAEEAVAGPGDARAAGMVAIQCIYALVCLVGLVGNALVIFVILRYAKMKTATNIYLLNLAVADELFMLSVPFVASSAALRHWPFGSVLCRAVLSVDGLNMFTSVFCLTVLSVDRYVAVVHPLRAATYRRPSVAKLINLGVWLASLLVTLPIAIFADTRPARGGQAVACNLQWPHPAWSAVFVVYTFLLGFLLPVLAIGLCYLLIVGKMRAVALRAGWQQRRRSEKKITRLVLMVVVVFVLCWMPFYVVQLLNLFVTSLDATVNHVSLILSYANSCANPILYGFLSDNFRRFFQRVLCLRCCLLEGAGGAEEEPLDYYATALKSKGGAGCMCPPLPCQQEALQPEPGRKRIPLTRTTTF
SSTR5, sequence (P35346 whole entry): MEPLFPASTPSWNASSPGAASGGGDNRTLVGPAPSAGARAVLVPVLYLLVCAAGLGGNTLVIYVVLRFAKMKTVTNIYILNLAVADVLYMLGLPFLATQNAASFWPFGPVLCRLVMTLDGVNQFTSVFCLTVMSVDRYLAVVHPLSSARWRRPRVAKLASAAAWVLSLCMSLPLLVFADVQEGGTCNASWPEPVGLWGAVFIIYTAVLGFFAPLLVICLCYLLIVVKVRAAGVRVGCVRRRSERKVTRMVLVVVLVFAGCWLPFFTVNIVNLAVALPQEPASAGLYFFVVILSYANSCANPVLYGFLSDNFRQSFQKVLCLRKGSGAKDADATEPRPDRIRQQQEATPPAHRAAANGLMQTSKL
SSTR3, sequence (P32745 whole entry): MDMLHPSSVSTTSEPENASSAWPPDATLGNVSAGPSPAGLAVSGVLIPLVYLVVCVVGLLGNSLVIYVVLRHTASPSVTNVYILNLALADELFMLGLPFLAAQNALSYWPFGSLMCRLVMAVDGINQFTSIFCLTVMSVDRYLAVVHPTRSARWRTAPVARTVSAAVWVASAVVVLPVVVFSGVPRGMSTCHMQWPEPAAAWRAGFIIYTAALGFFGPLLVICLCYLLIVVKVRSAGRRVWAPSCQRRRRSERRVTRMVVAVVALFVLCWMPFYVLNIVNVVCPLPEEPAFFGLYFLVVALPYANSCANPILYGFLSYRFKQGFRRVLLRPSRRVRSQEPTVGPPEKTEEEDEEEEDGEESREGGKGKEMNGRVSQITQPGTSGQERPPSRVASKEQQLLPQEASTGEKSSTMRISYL

Regarding `C[C@@H](O)[C@@H]1NC(=O)[C@H](CCCCN)NC(=O)[C@@H](Cc2ccc(CNC(N)=O)cc2)NC(=O)[C@H](Cc2ccc(O)cc2)NC(=O)[C@H](NC(=O)[C@@H](N)Cc2ccc(Cl)cc2)CSSC[C@@H](C(=O)N[C@H](Cc2ccc(O)cc2)C(N)=O)NC1=O` [Compound 7, H-Cpa-cyclo[DCys- Tyr-D-(4- ureidomethyl) Phe-Lys- Thr-Cys]-DTyr-NH2] (H-[Phe(4-Cl)][dC]Y[dPhe(4-CH2NHCONH2)]KTC[dY]-NH2; disulfide 2-7), the IC50 at SSTR1 was greater than 1 µM; at SSTR4, greater than 1 µM; in assay [1], 0.031 µM; at SSTR5, greater than 1 µM; on SSTR3, greater than 1 µM.

Regarding `CCCCCNc1ccc(C[C@H]2NC(=O)[C@H](Cc3ccc(O)cc3)NC(=O)[C@H](NC(=O)[C@@H](N)Cc3ccc(Cl)cc3)CSSC[C@@H](C(=O)N[C@H](Cc3ccc(O)cc3)C(N)=O)NC(=O)[C@H]([C@@H](C)O)NC(=O)[C@H](CCCCN)NC2=O)cc1` [Compound 12, H-Cpa-cyclo[D-Cys-Tyr-D-Phe(4-n-pentylamino)-Lys-Thr-Cys]-D-Tyr-NH2] (H-[Phe(4-Cl)][dC]Y[X2]KTC[dY]-NH2; disulfide 2-7), the half-inhibitory concentration (IC50) was greater than 1 µM on SSTR1; greater than 1 µM at SSTR4; 0.017 µM in assay [1]; greater than 1 µM at SSTR5; greater than 1 µM on SSTR3.

With `C[C@@H](O)[C@@H]1NC(=O)[C@H](CCCCN)NC(=O)[C@@H](Cc2ccc(NS(=O)(=O)c3ccccc3)cc2)NC(=O)[C@H](Cc2ccc(O)cc2)NC(=O)[C@H](NC(=O)[C@@H](N)Cc2ccc(Cl)cc2)CSSC[C@@H](C(=O)N[C@H](Cc2ccc(O)cc2)C(N)=O)NC1=O` [Compound 14, H-Cpa-cyclo[DCys- Tyr-D-4- (benzenesulfonyl) Aph-Lys-Thr- Cys]-DTyr-NH2] (H-[Phe(4-Cl)][dC]Y[X1]KTC[dY]-NH2; disulfide 2-7), the IC50 is greater than 1 µM on SSTR1; greater than 1 µM at SSTR4; 0.021 µM in assay [1]; greater than 1 µM on SSTR5; greater than 1 µM on SSTR3.

As to `C[C@@H](O)[C@@H]1NC(=O)[C@H](CCCCN)NC(=O)[C@@H](Cc2ccc(NC(=O)Nc3ccccc3)cc2)NC(=O)[C@H](Cc2ccc(O)cc2)NC(=O)[C@H](NC(=O)[C@@H](N)Cc2ccc(Cl)cc2)CSSC[C@@H](C(=O)N[C@H](Cc2ccc(O)cc2)C(N)=O)NC1=O` [Compound 15, H-Cpa-cyclo[D-Cys-Tyr-D-Phe(4-phenylureido)-Lys-Thr-Cys]-D-Tyr-NH2] (H-[Phe(4-Cl)][dC]Y[dPhe(4-NH2)]([CO-NHPh])KTC[dY]-NH2; disulfide 2-7), the IC50 at SSTR1 is greater than 1 µM; on SSTR4 it was greater than 1 µM; in assay [1], 0.001 µM; at SSTR5, greater than 1 µM; on SSTR3, greater than 1 µM.
